Targets include PIK3C3 (Homo sapiens, UniProt Q8NEB9); NTRK1 (Homo sapiens, UniProt P04629); PRKCA (Homo sapiens, UniProt P17252).
Holding throughout (assay): biochemical
What all share (parameters): endogenous in cells; host or cells: K562 cell extract; species or system K562 (extract); replicate k of n = 2 (each experiment ID is one independent experiment; two experiment IDs per compound)
Common to all, as to details: read-out: KDapp

A further test deals with T1, PIP4K2C (Homo sapiens, UniProt Q8TBX8).
T1 sequence (Q8TBX8 1-421): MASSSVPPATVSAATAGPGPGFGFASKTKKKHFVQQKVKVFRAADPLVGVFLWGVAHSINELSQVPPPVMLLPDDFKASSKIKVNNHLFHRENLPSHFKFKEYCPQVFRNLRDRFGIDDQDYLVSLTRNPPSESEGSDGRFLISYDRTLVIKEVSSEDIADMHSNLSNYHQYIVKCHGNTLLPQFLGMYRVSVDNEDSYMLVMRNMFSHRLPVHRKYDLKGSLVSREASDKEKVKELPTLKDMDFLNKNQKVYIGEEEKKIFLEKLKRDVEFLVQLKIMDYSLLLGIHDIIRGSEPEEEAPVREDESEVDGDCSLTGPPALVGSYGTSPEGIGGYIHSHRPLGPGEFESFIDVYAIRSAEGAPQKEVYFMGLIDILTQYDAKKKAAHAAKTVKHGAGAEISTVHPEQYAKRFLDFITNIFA

For the next test, the target named is T2, MAP4K2 (Homo sapiens, UniProt Q12851).
T2 sequence (Q12851 1-820): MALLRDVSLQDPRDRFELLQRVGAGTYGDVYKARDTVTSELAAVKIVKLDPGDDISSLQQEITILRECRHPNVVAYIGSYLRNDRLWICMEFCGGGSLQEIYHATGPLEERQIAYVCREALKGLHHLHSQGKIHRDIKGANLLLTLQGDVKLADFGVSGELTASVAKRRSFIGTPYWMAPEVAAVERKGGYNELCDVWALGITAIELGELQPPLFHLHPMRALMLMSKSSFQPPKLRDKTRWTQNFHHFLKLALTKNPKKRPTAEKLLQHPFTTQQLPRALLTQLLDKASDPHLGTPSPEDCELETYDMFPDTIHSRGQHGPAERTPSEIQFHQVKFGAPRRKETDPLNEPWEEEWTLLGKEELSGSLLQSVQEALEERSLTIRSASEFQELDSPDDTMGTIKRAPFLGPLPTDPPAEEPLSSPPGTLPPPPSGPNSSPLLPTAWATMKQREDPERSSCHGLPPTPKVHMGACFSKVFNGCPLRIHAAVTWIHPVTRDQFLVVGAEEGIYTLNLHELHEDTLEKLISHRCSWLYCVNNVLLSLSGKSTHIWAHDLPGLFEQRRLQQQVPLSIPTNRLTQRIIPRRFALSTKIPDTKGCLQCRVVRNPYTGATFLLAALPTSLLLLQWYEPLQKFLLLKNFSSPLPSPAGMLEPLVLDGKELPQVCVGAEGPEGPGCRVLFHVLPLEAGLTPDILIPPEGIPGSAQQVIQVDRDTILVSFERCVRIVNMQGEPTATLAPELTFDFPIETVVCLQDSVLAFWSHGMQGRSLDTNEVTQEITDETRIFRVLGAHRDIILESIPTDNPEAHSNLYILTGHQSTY

For another test, the target named is T3, CHEK1 (Homo sapiens, UniProt O14757).
T3 sequence (O14757 1-476): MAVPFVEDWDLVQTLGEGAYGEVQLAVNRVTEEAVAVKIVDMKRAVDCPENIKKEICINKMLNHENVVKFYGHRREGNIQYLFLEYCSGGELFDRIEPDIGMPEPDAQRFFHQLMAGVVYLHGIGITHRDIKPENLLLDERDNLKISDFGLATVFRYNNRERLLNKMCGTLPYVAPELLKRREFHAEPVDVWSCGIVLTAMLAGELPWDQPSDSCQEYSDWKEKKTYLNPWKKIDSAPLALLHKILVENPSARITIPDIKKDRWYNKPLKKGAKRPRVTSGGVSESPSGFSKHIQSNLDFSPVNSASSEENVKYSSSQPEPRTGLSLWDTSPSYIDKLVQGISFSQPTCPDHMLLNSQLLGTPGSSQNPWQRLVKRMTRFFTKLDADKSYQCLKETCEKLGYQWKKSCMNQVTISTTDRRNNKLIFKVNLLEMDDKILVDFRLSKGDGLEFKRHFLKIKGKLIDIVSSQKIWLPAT

This is an account of results in paper PMC4774911, “Biochemical Screening of Five Protein Kinases from Plasmodium falciparum against 14,000 Cell-Active Compounds” (PLoS ONE, 2016).

SMILES strings stand for the structures. Where “and” joins values, the source holds several entries; their conditions need not be identical. Equal entries are not always repeated.

Chain of NTRK1 (P04629 whole entry): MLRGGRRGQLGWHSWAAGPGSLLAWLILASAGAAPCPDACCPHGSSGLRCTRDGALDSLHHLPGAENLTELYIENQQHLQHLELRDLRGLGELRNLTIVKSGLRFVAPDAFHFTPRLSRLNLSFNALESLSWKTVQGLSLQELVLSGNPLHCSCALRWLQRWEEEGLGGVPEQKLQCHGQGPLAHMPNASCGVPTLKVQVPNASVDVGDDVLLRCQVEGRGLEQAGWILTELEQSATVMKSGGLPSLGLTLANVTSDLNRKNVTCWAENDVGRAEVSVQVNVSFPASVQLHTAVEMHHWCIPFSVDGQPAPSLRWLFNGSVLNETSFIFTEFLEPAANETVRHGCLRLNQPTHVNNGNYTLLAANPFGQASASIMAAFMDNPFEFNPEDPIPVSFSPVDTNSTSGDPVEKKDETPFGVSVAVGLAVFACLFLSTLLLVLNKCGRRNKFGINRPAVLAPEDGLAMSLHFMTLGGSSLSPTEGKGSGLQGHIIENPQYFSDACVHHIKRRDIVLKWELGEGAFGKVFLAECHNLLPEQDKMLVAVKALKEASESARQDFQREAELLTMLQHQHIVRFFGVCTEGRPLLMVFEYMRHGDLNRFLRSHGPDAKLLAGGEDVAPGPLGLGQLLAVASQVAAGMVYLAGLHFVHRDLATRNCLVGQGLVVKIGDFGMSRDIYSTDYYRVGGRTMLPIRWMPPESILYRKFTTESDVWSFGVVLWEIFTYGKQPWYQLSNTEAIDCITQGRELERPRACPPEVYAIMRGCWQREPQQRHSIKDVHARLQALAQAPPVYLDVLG
Chain of PIK3C3 (Q8NEB9 whole entry): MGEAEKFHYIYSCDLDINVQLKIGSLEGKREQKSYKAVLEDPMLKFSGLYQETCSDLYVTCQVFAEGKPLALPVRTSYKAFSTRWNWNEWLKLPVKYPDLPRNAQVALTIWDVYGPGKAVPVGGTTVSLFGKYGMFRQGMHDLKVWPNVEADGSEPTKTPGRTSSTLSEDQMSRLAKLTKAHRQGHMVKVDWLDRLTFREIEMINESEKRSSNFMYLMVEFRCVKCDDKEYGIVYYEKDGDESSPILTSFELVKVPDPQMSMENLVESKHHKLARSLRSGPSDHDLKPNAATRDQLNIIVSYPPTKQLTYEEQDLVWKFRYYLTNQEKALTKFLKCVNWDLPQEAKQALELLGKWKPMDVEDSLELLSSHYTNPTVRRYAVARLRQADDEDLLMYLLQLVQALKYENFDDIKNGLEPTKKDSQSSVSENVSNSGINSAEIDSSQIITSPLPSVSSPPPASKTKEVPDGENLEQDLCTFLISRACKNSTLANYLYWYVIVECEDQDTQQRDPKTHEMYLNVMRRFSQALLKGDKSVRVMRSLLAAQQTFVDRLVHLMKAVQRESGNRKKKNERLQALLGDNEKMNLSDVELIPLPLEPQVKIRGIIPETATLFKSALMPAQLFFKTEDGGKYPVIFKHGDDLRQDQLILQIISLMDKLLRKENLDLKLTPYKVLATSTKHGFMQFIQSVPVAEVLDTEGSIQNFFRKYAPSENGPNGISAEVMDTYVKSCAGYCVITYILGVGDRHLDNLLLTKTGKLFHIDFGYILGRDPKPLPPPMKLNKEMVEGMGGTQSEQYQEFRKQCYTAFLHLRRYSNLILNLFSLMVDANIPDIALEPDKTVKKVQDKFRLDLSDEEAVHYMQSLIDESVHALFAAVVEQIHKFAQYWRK

For the molecule `CN1CCN(c2ccc(Nc3ncc(C#N)c(Nc4ccccc4C(N)=O)n3)cc2)CC1.Cl` [TCMDC-134116], the Kd at PIP4K2C was 691 nM and 713 nM; at PIK3C3 it was 957 nM; on NTRK1, 1030 nM and 701 nM; on PRKCA it was 393 nM; at MAP4K2, 648 nM; on CHEK1 it was 92 nM.
